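Five compound concentrations were applied to cells in 96-well plates for 48 hours; endpoints were derived by simple linear interpolation of the resulting dose-response curve. GI50 = concentration required for 50% inhibition of growth.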 Activity calls are given as the source filed them. Rule as the data show it: active = GI50 up to about 1.1 µM and inactive = higher.
Experiments:
Assay in all cases: NCI tumour cell line growth inhibition, 48 h
OVCAR-8 = test system: OVCAR-8
SN12C = test system: SN12C
NCI-H226 = test system: NCI-H226
CCRF-CEM = test system: CCRF-CEM
K562 = test system: K562
NCI-H522 = test system: NCI-H522
RPMI-8226 = test system: RPMI-8226
HCT-15 = test system: HCT-15
OVCAR-3 = test system: OVCAR-3
SK-OV-3 = test system: SK-OV-3
Hs-578T = test system: Hs-578T
SNB-19 = test system: SNB-19
UACC-257 = test system: UACC-257
ACHN = test system: ACHN
SR = test system: SR
A549 = test system: A549
UO-31 = test system: UO-31
HCT-116 = test system: HCT-116
A498 = test system: A498

SMILES: CC1(C)C[C@@H]2C1CCC1(C)CC2(O)CC[C@H]1O (stereo partly drawn)
- GI50 (OVCAR-8): > 100 µM (inactive)
- GI50 (SN12C): > 100 µM (inactive)
- GI50 (NCI-H226): > 100 µM (inactive)
- GI50 (CCRF-CEM): > 100 µM (inactive)
- GI50 (K562): > 100 µM (inactive)
- GI50 (NCI-H522): > 100 µM (inactive)
- GI50 (RPMI-8226): > 100 µM (inactive)
- GI50 (HCT-15): > 100 µM
- GI50 (OVCAR-3): > 100 µM (inactive)
- GI50 (SK-OV-3): > 100 µM (inactive)
- GI50 (Hs-578T): > 100 µM (inactive)
- GI50 (SNB-19): > 100 µM (inactive)
- GI50 (UACC-257): > 100 µM (inactive)
- GI50 (ACHN): > 100 µM (inactive)
- GI50 (SR): > 100 µM (inactive)
- GI50 (A549): > 100 µM (inactive)
- GI50 (UO-31): > 100 µM (inactive)

SMILES: Nc1nc(O)c2c(n1)NCN(c1ccc(S(N)(=O)=O)cc1)C2
- GI50 (OVCAR-8): > 100 µM (inactive)
- GI50 (SN12C): > 100 µM (inactive)
- GI50 (NCI-H226): > 100 µM (inactive)
- GI50 (K562): > 100 µM (inactive)
- GI50 (NCI-H522): > 100 µM (inactive)
- GI50 (RPMI-8226): > 100 µM (inactive)
- GI50 (HCT-15): > 100 µM
- GI50 (OVCAR-3): > 100 µM (inactive)
- GI50 (Hs-578T): > 100 µM (inactive)
- GI50 (SNB-19): > 100 µM (inactive)
- GI50 (UACC-257): > 100 µM (inactive)
- GI50 (ACHN): > 100 µM (inactive)
- GI50 (HCT-116): > 100 µM (inactive)
- GI50 (SR): > 100 µM (inactive)
- GI50 (A549): > 100 µM (inactive)
- GI50 (UO-31): > 100 µM (inactive)
- GI50 (A498): > 100 µM (inactive)

SMILES: CC1(C)CC[C@]2(C(=O)O)CC[C@]3(C)C(=CCC4=C5C[C@H](O)[C@H](O)[C@@](C)(CO)[C@@]5(C)CC[C@]43C)[C@@H]2C1
- GI50 (OVCAR-8): 44.3 µM (inactive)
- GI50 (SN12C): 39.6 µM (inactive)
- GI50 (CCRF-CEM): 0.944 µM (active)
- GI50 (K562): 62.8 µM (inactive)
- GI50 (NCI-H522): 46.2 µM (inactive)
- GI50 (RPMI-8226): 43.8 µM (inactive)
- GI50 (HCT-15): 38.9 µM
- GI50 (OVCAR-3): > 100 µM (inactive)
- GI50 (SK-OV-3): > 100 µM (inactive)
- GI50 (Hs-578T): 39.9 µM (inactive)
- GI50 (SNB-19): 16 µM (inactive)
- GI50 (UACC-257): 71 µM (inactive)
- GI50 (ACHN): > 100 µM (inactive)
- GI50 (HCT-116): 31.3 µM (inactive)
- GI50 (SR): > 100 µM (inactive)
- GI50 (A549): 38.5 µM (inactive)
- GI50 (UO-31): 47.1 µM (inactive)
- GI50 (A498): 17.8 µM (inactive)

SMILES: Cc1cc(C)c2c(n1)S(=O)(=O)N(CCCN1CCN(c3cccc(C(F)(F)F)c3)CC1)c1c-2nn(C)c1C
- GI50 (OVCAR-8): > 100 µM (inactive)
- GI50 (SN12C): 97.5 µM (inactive)
- GI50 (NCI-H226): 30.7 µM (inactive)
- GI50 (CCRF-CEM): 66.7 µM (inactive)
- GI50 (K562): 30.3 µM (inactive)
- GI50 (NCI-H522): 57.4 µM (inactive)
- GI50 (HCT-15): 44.5 µM
- GI50 (OVCAR-3): 67.1 µM (inactive)
- GI50 (SK-OV-3): > 100 µM (inactive)
- GI50 (Hs-578T): > 100 µM (inactive)
- GI50 (SNB-19): > 100 µM (inactive)
- GI50 (UACC-257): 32.5 µM (inactive)
- GI50 (ACHN): > 100 µM (inactive)
- GI50 (HCT-116): 61.8 µM (inactive)
- GI50 (SR): 19.4 µM (inactive)
- GI50 (A549): 65.6 µM (inactive)
- GI50 (UO-31): 44.4 µM (inactive)
- GI50 (A498): > 100 µM (inactive)

SMILES: O=C(O)c1[nH]c2c([N+](=O)[O-])cc([N+](=O)[O-])cc2c1C(=O)O
- GI50 (OVCAR-8): > 100 µM (inactive)
- GI50 (SN12C): > 100 µM (inactive)
- GI50 (NCI-H226): > 100 µM (inactive)
- GI50 (CCRF-CEM): > 100 µM (inactive)
- GI50 (K562): > 100 µM (inactive)
- GI50 (NCI-H522): 78.9 µM (inactive)
- GI50 (HCT-15): > 100 µM
- GI50 (OVCAR-3): > 100 µM (inactive)
- GI50 (SK-OV-3): > 100 µM (inactive)
- GI50 (Hs-578T): > 100 µM (inactive)
- GI50 (SNB-19): > 100 µM (inactive)
- GI50 (UACC-257): > 100 µM (inactive)
- GI50 (ACHN): > 100 µM (inactive)
- GI50 (HCT-116): > 100 µM (inactive)
- GI50 (SR): 75.5 µM (inactive)
- GI50 (A549): > 100 µM (inactive)
- GI50 (UO-31): > 100 µM (inactive)
- GI50 (A498): > 100 µM (inactive)

— ChEMBL document CHEMBL1201862, “PubChem BioAssay data set” (2004)
